9 compounds from article PMC10399481, “Discovery and biological evaluation of novel CARM1/HDAC2 dual-targeting inhibitors with anti-prostate cancer agents” (Journal of Enzyme Inhibition and Medicinal Chemistry, 2023) can be followed below.

Entries after “also recorded” stand apart in the source; their conditions may differ. Where two headings read alike, the source gives them in different places. Some results are limits rather than exact numbers.

The target in one assay is T1, CARM1 (Homo sapiens, UniProt Q86X55).
T1 construct: purchased Abcam (Cambridge, MA, USA)
T1 sequence (Q86X55 1-608): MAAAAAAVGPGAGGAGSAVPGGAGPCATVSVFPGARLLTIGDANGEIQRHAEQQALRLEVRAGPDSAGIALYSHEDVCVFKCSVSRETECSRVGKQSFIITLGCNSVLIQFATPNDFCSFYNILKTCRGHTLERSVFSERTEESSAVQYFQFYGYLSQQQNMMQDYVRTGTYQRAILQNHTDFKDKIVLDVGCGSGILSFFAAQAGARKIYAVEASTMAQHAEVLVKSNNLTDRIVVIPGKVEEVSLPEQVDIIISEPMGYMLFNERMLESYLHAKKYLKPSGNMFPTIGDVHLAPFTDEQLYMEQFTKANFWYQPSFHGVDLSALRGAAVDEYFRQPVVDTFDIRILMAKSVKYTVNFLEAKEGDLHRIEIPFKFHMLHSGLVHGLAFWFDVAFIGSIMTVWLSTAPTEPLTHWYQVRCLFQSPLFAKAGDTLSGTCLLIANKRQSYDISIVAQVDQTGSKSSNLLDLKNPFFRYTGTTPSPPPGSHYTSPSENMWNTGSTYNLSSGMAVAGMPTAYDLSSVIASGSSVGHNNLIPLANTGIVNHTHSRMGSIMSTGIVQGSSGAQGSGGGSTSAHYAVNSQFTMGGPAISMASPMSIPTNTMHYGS
The assay is described as follows: In vitro CARM1 inhibition assay (3H-SAM, Flashplate). The assay is classed as biochemical. Conditions: 30 min preincubation, pH 7.5. The method, then:
(§1) Hit compounds were purchased from WuXi AppTec.
In vitro CARM1 inhibition assays were conducted as previously described. Before the reaction began, CARM1 was preincubated with compounds for 30 min at room temperature. […] Assay was performed at the condition of pH 7.5. The assay was quenched through the addition of 300 µM unlabelled SAM. The quantity of ^3H-labeled peptide produced was measured by Flashplate on a Topcount reader.

The next assay has as its system DU145 cells. The assay is described as follows: MTT cell growth assay, DU145. Conditions: for inhibition at 1 µM: DU-145, read-out: DU145 (% inhibition rate, 1 μM).
The next assay concerns the target T2, HDAC2 (Homo sapiens, UniProt Q92769).
T2 construct: purchased Abcam (Cambridge, MA, USA)
Description: In vitro HDAC2 inhibition assay (Boc-Lys(acetyl)-AMC fluorogenic). Type of assay: biochemical. The procedure: as §1
In vitro HDAC2 inhibition assays were performed as previously stated. Briefly, 50 µL of various concentrations of tested compounds were mixed with 10 µL of HDAC2 enzyme solution. After 5 min of 37 °C incubation, 40 µL of the luorogenic substrate Boc-Lys(acetyl)-AMC was added. The mixture was incubated at 37 °C for 30 min and stopped by adding 100 µL of developer containing trypsin and TSA. Then, fluorescence intensity was determined 20 min later at excitation and emission wavelengths of 390 and 460 nm, respectively, using a microplate reader. The IC50 values were determined by the GraphPad Prism 6 program based on a sigmoidal dose − response equation, and the inhibition rates were calculated using the fluorescence intensity readings of the tested wells in comparison to those of the control wells.

The next assay deals with PC-3 cells. Description: MTT cell growth assay, PC-3. Conditions: Homo sapiens, PC-3, 72 h, read-out: PC-3 cell proliferation IC50. (Tetrazolium dyes change colour on reduction, which living cells bring about.)
Another assay deals with 22RV1 cells. The assay is described as follows: MTT cell growth assay, 22RV1. Conditions: Homo sapiens, 22Rv1, 72 h, read-out: 22RV1 cell proliferation IC50.
In another assay the test system is RM-1 cells. Description: MTT cell growth assay, RM-1. Conditions: RM1, 72 h, read-out: RM-1 cell proliferation IC50.
A further assay concerns LAPC4 cells. Description: MTT cell growth assay, LAPC4. Conditions: Homo sapiens, LAPC4, 72 h, read-out: LAPC4 cell proliferation IC50.
Assay [1] has as its system multiple prostate-related tumour cells (DU145, RM-1, LAPC4, 22RV1, PC-3). Description: MTT cell growth assay, prostate cancer cell panel. Conditions: Homo sapiens, read-out: anti-proliferative IC50 against prostate-related tumour cells.
Description: (§2) The American Type Culture Collection (ATCC) (Manassas, VA, USA) provided the human cancer cell lines including DU145, RM-1, LAPC4, 22RV1, and PC-3, which was then cultured in Dulbecco’s modified Eagle’s medium (DMEM) with 1% penicillin-streptomycin and 10% foetal bovine serum (FBS) in a humidified environment with 5% CO2 at 37 °C.
(§3) Based on the experimental method published previously, cell lines were prepared in cell suspension (5 × 10^4 cells/mL) and seeded into a 96-well plate[59].
Another assay deals with DU145 xenograft tumour. The assay is described as follows: In vivo anticancer activity, DU145 xenograft. On the set-up: species or system BALB/c nude mice. Conditions: 5, 10 and 20 mg/kg i.p., every four days, six times; dose-dependent. The procedure:
The method of in vivo assay was described previously. We bought healthy female BALB/c nude mice from the animal experiment centre of Yangzhou University. All experiments involving animals were approved by the Animal Ethics Committee of China Pharmaceutical University. Mice were subcutaneously injected on the right flank with DU145 cells (200 µl, 1 × 10^7 cells). When tumour sizes reached 80–100 mm^3, mice were divided into four groups at random. Every four days for a total of six times, each group was injected intraperitoneally with the vehicle, CH-1 (5 mg/kg), CH-1 (10 mg/kg), and CH-1 (20 mg/kg). Tumour volume was measured every four days and calculated by the formula (c × c × d)/2 (c, the smallest diameter; d, the largest diameter).

[2] abbreviates: 37 °C, 30 min, read-out: HDAC2 (IC50).

In general, inhibition refers to how much of the control response was suppressed.

T2 sequence (Q92769 whole entry): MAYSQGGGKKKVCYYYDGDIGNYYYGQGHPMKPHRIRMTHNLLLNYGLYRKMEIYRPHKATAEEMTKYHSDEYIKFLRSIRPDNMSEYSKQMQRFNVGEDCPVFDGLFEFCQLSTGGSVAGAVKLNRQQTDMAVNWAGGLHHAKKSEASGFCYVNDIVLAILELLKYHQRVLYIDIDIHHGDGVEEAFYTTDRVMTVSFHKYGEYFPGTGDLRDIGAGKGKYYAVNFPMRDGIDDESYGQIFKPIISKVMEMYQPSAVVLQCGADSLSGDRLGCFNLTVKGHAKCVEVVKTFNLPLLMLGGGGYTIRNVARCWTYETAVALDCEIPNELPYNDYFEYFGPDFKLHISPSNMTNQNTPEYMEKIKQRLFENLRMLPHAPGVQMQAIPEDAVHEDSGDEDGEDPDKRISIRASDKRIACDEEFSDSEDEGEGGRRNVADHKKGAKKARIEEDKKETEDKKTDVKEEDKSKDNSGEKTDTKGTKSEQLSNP
Description for 22RV1 cells: as §2, §3
Description for DU145 cells: as §2, §3
Description for LAPC4 cells: as §2, §3
Description for PC-3 cells: The American Type Culture Collection (ATCC) (Manassas, VA, USA) provided the human cancer cell lines including DU145, RM-1, LAPC4, 22RV1, and PC-3, which was then cultured in Dulbecco’s modified Eagle’s medium (DMEM) with 1% penicillin-streptomycin and 10% foetal bovine serum (FBS) in a humidified environment with 5% CO2 at 37 °C. […] Hit compounds were purchased from WuXi AppTec.
as §3
Description for RM-1 cells: as §2, §3

`CNCCNCc1cccc(-c2nc(Nc3cccc(OCCCCCCC(=O)NO)c3)c(C)c(-c3cc4cccc(OC)c4[nH]3)n2)c1` [CH-4]: the values for the IC50 against CARM1 and on HDAC2 (setting [2]) were 25.5 ± 1.12 nM and 9.18 ± 0.17 nM, respectively. The inhibition at 1 µM in the assay on DU145 cells (Homo sapiens) turned out to be 92%.

Consider `CNC[C@@H](O)COc1ccc(Cl)c(-c2nc(-c3c(C)noc3C)c(C)c(N3CC4(CCN(C(=O)OC)CC4)C3)n2)c1` [EZM2302, reference compound], for which the inhibition at 1 µM with DU145 cells (Homo sapiens) was less than 50%. At HDAC2 (37 °C, 30 min), the “HDAC2 (IC50, nM)” value was “no inhibition”.

Take `O=C(CCCCCCC(=O)Nc1ccccc1)NO` [vorinostat, reference compound]: the “CARM1 (IC50, nM)” value at CARM1 is “no inhibitory effect; also recorded: no inhibition”.

Turning to `CNCCNCc1cccc(-c2nc(Nc3cccc(OCCCCCCC(=O)NO)c3)c(C)c(Oc3ccccc3)n2)c1` [CH-7], the IC50 at CARM1 was determined as 58.5 ± 3.21 nM; on HDAC2 (setting [2]), 24.8 ± 1.53 nM. In addition, the inhibition at 1 µM in the assay with DU145 cells (Homo sapiens) was 81%.

For `CNCCNCc1cccc(-c2nc(Nc3cccc(OCCCCCCC(=O)NO)c3)c(C)c(-c3c(C)noc3C)n2)c1` [CH-2], the IC50 at CARM1 came to 5.38 ± 0.54 nM; at HDAC2 (setting [2]) it was 8.33 ± 1.05 nM. Moreover, the inhibition at 1 µM in the assay with DU145 cells (Homo sapiens) was 93%.

As to `CNCCNCc1cccc(-c2nc(Cl)c(C)c(Nc3cccc(OCCCCCCC(=O)NO)c3)n2)c1` [CH-6], the IC50 at CARM1 worked out at 37.4 ± 1.65 nM; on HDAC2 (setting [2]), 13 ± 1.25 nM. For the same compound, the inhibition at 1 µM in the assay on DU145 cells (Homo sapiens) came out at 86%.

On to `CNCCNCc1cccc(-c2nc(Nc3cccc(OCCCCCCC(=O)NO)c3)c(C)c(-c3cccnc3)n2)c1` [CH-3], for which the values for the IC50 on CARM1 and on HDAC2 (setting [2]) were 10.6 ± 0.93 nM and 5.83 ± 0.41 nM, respectively. Further, the inhibition at 1 µM in the assay with DU145 cells (Homo sapiens) was 96%.

In the case of `CNCCNCc1cccc(-c2nc(Nc3cccc(OCCCCCCC(=O)NO)c3)c(C)c(-c3ccnc4[nH]ccc34)n2)c1` [CH-1], the IC50 at CARM1 was determined as 3.71 ± 0.11 nM; with PC-3 cells, 430 nM; with 22RV1 cells it was 950 nM; in the assay on DU145 cells (Homo sapiens, DU-145, 72 h, read-out: DU145 cell proliferation IC50), 90 nM; in the assay on RM-1 cells, 710 nM; in the assay on LAPC4 cells, 680 nM. In addition, the IC50 is less than 1000 nM in assay [1] and 4.07 ± 0.25 nM against HDAC2. The inhibition at 1 µM in the assay with DU145 cells (Homo sapiens) amounted to 97%. In addition, in the assay on DU145 cells (ratio of IC50 values), the “inhibitory activity on DU145 cells relative to vorinostat” value is “five times stronger”. Besides, in the assay on DU145 xenograft tumour, the “tumour volume / tumour growth versus vehicle” value is “significantly inhibited tumour growth; also recorded: significantly reduced; also recorded: significant antitumour activity”.

Consider `CNCCNCc1cccc(-c2nc(Nc3cccc(OCCCCCCC(=O)NO)c3)c(C)c(-c3cc4ccccc4s3)n2)c1` [CH-5], for which the IC50 against CARM1 worked out at 30.1 ± 2.02 nM; on HDAC2 (setting [2]), 17.3 ± 1.96 nM. Also, the inhibition at 1 µM with DU145 cells (Homo sapiens) was found to be 85%.
